What was measured:
[1] = maximum amount of L-lysine capable of being dissolved in water; format: physicochemical; conditions: water @ 20 °C
Protocol: Various different concentrations of L-lysine may be used in the mixture. In one embodiment, L-lysine is initially dissolved in water at a concentration of 500 mg/ml. The L-lysine/water solution is then mixed with the palatable base substance at a 1:1 ratio (i.e., 50% solution and 50% palatable base), resulting in an L-lysine concentration of 250 mg/ml. Given that the current recommended dosage of L-lysine is 250 to 1000 mg daily, two 2 ml doses may be administered daily. Alternatively, a single 4 ml dose may be administered (if the cat is willing to consume the 4 ml dose). It should be noted, however, that the underlying principles of the invention are not confined to any particular concentration of L-lysine or any particular dosage. For example, any concentration up to the maximum amount capable of being dissolved in water may be used (e.g., 64.2 gm/100 ml water @ 20 °C, or approximately 650 mg/ml). Moreover, the L-lysine solution may then be added to the palatable base at various different ratios, based on the desired L-lysine concentration and/or the desired consistency of the final mixture (e.g., 2:1, 3:1, 1:2, . . . etc).

[2] = water @ 20 °C; cited from earlier work
[3] = test system: Feline herpesvirus type I (FHV-1); conditions: cats maintained on oral L-lysine; cited from earlier work

In the case of `NCCCC[C@H](N)C(=O)O` [L-lysine], the “maximum amount capable of being dissolved in water (approximate concentration)” value [1] is given as “approximately 650 mg/ml”, the “maximum amount capable of being dissolved in water” value [2] is given as 64.2 gm/100 ml and the “severity and duration of infection if signs of the virus reoccur” value [3] is given as “milder and of a shorter duration”. For the same molecule, the “time between ocular viral flare-ups” value [3] was “longer period of time between ocular viral flare-ups”.

Source: patent US20060141013A1, “Lysine mixture and apparatus and method for administering lysine” (priority 2002, published 2006)
